From paper PMC11438743, “High-dose colistin pharmacokinetics in critically ill patients receiving continuous renal replacement therapy” (Annals of Intensive Care, 2024)
Like-named read-outs stand apart in the source and are kept apart here.

Key:
[1] = in vivo, iv
Procedure: Clinical and demographic data were recorded upon enrolment. […] Renal recovery was defined as a reduction in peak AKI-KDIGO stage [21] and was evaluated in patients without chronic kidney disease.

[2] = tested on: CR-Acinetobacter baumannii ventilator associated pneumonia (VAP); experiment: Clinical outcome of patients treated with high-dose intravenous colistimethate; assay type: in vivo, human; settings: 20 patients, IV CMS 9 MIU LD then 6.75 MIU q12 in combination therapy, no control group
[3] = cited from earlier work
Procedure: Several variables may influence colistin plasma concentration as demographic (e.g. body mass), clinical (e.g. kidney function) and therapeutic (e.g. RRT modality, membrane, mode and dose) variables. In order to account for CRRT removal of colistin, the 2019 international guidelines for the optimal use of polymyxins recommend administering a daily dose of 440 colistin base activity (CBA), corresponding to ≈ 13,3 MIU or ≈ 1173 mg of CMS in patients who are exposed to this extracorporeal organ support. […] The authors, documenting a 62% ClCVVHDF, formulated a pharmacokinetic model where a LD of 12 MIU followed by a maintenance dosage of 6.75–7.5 MIU q12 would be needed to achieve a target Css, avg of 2–3 mcg/mL [31]. […] Further, in the latest and largest investigation on this topic, ten critically ill patients requiring CRRT and receiving CMS 3 MIU q8 were prospectively studied.

Acinetobacter spp. = experiment: Colistin MIC of BAL isolates (Micronaut AST BMD, VITEK 2 AST-N397, EUCAST v11.0); assay type: cell-based; settings: BAL Acinetobacter spp. isolates of 20 patients; median [interquartile range]
Procedure: Bacterial isolates were identified by using matrix-assisted laser desorption ionization-time of flight mass spectrometry (MALDI-TOF MS). MICs were determined by a Micronaut AST system-based BMD, VITEK 2 AST-N397 card, according to the manufacturer’s instructions. EUCAST (version 11.0, 2021) clinical breakpoints were used to interpret MICs. In pneumonia episodes, microbiological evidence of bacterial infection was achieved by processing respiratory samples both for conventional and fast-microbiology panel testing. […] Semiquantitative culture results were obtained using calibrated loops to inoculate and streak samples on both selective/differential.

[4] = Colistin plasma pharmacokinetics at steady state in critically ill patients undergoing CRRT (CVVHDF); assay type: in vivo, human; settings: median [IQR]
Procedure: According to current guidelines, CMS high dosage (HD) was administered intravenously (IV) at loading dose (LD) of 9 MIU […] over 30-min, followed by 6.75 MIU over 30-min q12. On day 4, at steady state, pharmacokinetic analyses of the study group were performed. CRRT was delivered as continuous veno-venous hemodiafiltration (CVVHDF) with Prismaflex ST150 (Gambro AB, Lund, Sweden) using the AN69 ST membrane (acrylonitrile-sodium-methyl sulfonate surface treated; surface area, 1.5m2) and regional citrate anticoagulation. Dose intensity was prescribed according to current guidelines, and with a ratio of dialysate to replacement fluid of 1:1. The CRRT circuit and membrane were changed every 72 h, as standard operating procedure in our center.
Although colistin concentration-time profiles are stable just on day 3, blood samples were collected after the seventh dose (on day 4 of treatment) at T0 (immediately before the initiation of CMS infusion) and 1 h, 2 h, 4 h, 6 h, 8 h, 10 h and 12 h from the start of CMS infusion. First order kinetic determined pharmacokinetic parameters; maximum and minimum concentrations (Cmax, Cmin) were directly obtained from observed peak and trough concentrations. The 0–12 h area under the time–concentration curve (AUC0–12 ) was determined by the linear trapezoidal rule. Colistin AUC0–24 was calculated as AUC0–12 × 2. The average steady-state plasma concentration (Css, avg) was obtained from the ratio of colistin AUC 0–24 above T (i.e. the dosage interval). In all patients, distribution volume (Vd), drug clearance (CL), and elimination half-life (t1/2 ) were calculated after a single 6.75 MIU intravenous dose at steady state. According to current guidelines, the recommended PK/PD therapeutic target has been considered the area under the plasma concentration- time curve across 24 h at steady state above MIC (fAUCss 0−24 hr) of ~ […], that equates to a target Css, avgof ~ 2 mg/L of the total drug against susceptible strains (MIC ≤ 2 mcg/mL). […] Colistin and CMS concentration were measured using and modifying the Gobin assay.

[5] = plasmatic absorption after aerosolization of either 3 MIU and 5 MIU CMS; cited from earlier work
Text: In our study, all patients underwent CVVHDF with a similar daily dose and since this technique uses diffusion across a concentration gradient (e.g. hemodialysis) in addition to hemofiltration across a pressure gradient, the equivalences of the two modes with respect to CMS/colistin clearance are unknown. Additionally none of our patients had residual renal function and almost all were also receiving high dose nebulized CMS (5 MIU q8), delivered through vibrating mesh nebulizers, potentially contributing to the higher than expected steady-state colistin levels. In our study we cannot asc ...

[6] = colistin, 20 patients on CVVHDF (AN69 ST membrane), steady state
[7] = eight critically ill patients receiving CRRT, CMS 4.5 MIU q12
[8] = five patients on CRRT, CMS until 2 MIU q8
[9] = ten critically ill patients requiring CRRT, CMS 3 MIU q8

colistimethate [CMS]
Renal Recovery [1]: 6 (37.5) count (percentage) | Death in ICU ([2]; 18 with nebulized CMS): 15 (75) count (percentage) | Treatment failure [2]: 14 (70) count (percentage) | CRRT clearance as share of total clearance ([3]; human, in vivo): 41% | median Cmax ([3]; human, in vivo): 12600 ng/mL | risk to overcome the safety limit of Css, avg ≥ 4 mcg/mL ([3]; human, in vivo): less than 30% | target attainment rate (Css, avg ≥ 2 mcg/mL) ([3]; human, in vivo): 80%

CC[C@H](C)CCCCC(=O)N[C@@H](CCN)C(=O)N[C@H](C(=O)N[C@@H](CCN)C(=O)N[C@H]1CCNC(=O)[C@H]([C@@H](C)O)NC(=O)[C@H](CCN)NC(=O)[C@H](CCN)NC(=O)[C@H](CC(C)C)NC(=O)[C@@H](CC(C)C)NC(=O)[C@H](CCN)NC1=O)[C@@H](C)O (mixture of isomers) [Colistin, Colistin (polymixin E)]
MIC (Acinetobacter spp.): 1[1-1.5] mcg/mL | %E (% filter extraction) [4, 6]: 17.65 [14.98–21.67] % | CLCRRT [4, 6]: 1.21 [0.88–1.35] L/h | Vd ([4]; human, plasma, colistin, 20 patients on CVVHDF, after a single 6.75 MIU IV CMS dose at steady state): 126 L | half-life ([4]; human, plasma, colistin, 20 patients on CVVHDF, after a single 6.75 MIU IV CMS dose at steady state, one-compartment, first order): 20.9 h | clearance ([4]; human, plasma, colistin, 20 patients on CVVHDF, after the seventh 6.75 MIU IV CMS dose at steady state, read-out: CLTOT (converted)): 34.7 mL/min | Cmax ([4]; human, plasma colistin, 20 critically ill anuric patients on CVVHDF (AN69 ST, 32.5 mL/kg/h), IV CMS 9 MIU LD then 6.75 MIU q12, after seventh dose (day 4, steady state), observed peak, modified Gobin assay): 16600 ng/mL | AUC(0-t) ([4]; human, plasma colistin, 20 patients on CVVHDF, IV CMS 6.75 MIU q12 after 9 MIU LD, day 4, AUC0-12 (linear trapezoidal) x 2, read-out: AUC0-24): 194 µg·h/mL | level at 96 h ([4]; human, plasma colistin, 20 patients on CVVHDF, IV CMS 9 MIU LD then 6.75 MIU q12, after seventh dose (day 4), observed trough, read-out: Cmin): 3930 ng/mL | Css, avg (average steady-state concentration) ([4]; plasma colistin, 20 patients on CVVHDF, IV CMS 9 MIU LD then 6.75 MIU q12, day 4, AUC0-24 over dosage interval): 8.07 [7.1–8.69] mcg/mL | Css, avg in patients who recovered renal function ([4]; plasma colistin, subgroup with renal recovery, p = 0.026 vs no renal recovery): 7.48 [6.35, 8.05] mcg/mL | Css, avg in patients that had no renal recovery ([4]; plasma colistin, subgroup without renal recovery, p = 0.026 vs renal recovery): 8.31 [7.35, 9.13] mcg/mL | fAUC0-24 ([4]; unbound colistin, unbound fraction derived from literature, 20 patients on CVVHDF, IV CMS 6.75 MIU q12, day 4): 58.16 [51.18–62.6] mcg h/mL | ClCVVHDF [3, 7]: 62% | median Cmax [3, 7]: 1720 ng/mL | CLHDF [3, 8]: above 4 L/h | Css, avg [3, 8]: ≤ 1 µg/mL | membrane extraction ratio [3, 8]: 68% | steady-state concentrations ([3]; high CMS daily administration schedules during CRRT, especially with residual renal function and prolonged course): above 10 mcg/mL | AUC0-24 [3, 9]: 569 [404–741] mcg h/mL | CRRT clearance as share of total clearance [3, 9]: 28% | Css, avg [3, 9]: 4.43 [3.01–7.24] mcg/mL | effluent clearance share ([3]; three patients on CRRT): about 40% | colistin concentrations after aerosolization [5]: < 1 µg/mL
